Entries after “also recorded” stand apart in the source; their conditions may differ. Like-named read-outs stand apart in the source and are kept apart here.
Legend:
[1] = test system: T1, cellular SAMHD1 in intact THP-1 cells; assay: CETSA using intact THP-1 cells; format: cell-based, Human; details: 100 μM inhibitors or 10 mM thymidine, 2 h; isothermal at 53°C for inhibitors
T1 construct: lysate from THP-1 cells expressing endogenous wild-type SAMHD1; endogenous in cells; host or cells: THP-1

[2] = test system: T2, cellular SAMHD1 in THP-1 cell lysate; assay: Drug affinity responsive target stability (DARTS) on THP-1 cell lysates; format: binding, Human; details: 100 μM compound or 5 mM dGTP
T2 construct: lysate from THP-1 cells expressing endogenous wild-type SAMHD1; endogenous in cells; host or cells: THP-1

[3] = test system: T3, wild-type SAMHD1 in THP-1 cell lysates; assay: CETSA using THP-1 cell lysates, wild-type SAMHD1; format: binding, Human
T3 construct: lysate from THP-1 cells expressing endogenous wild-type SAMHD1; endogenous in cells; host or cells: THP-1

[4] = target: T4, recombinant SAMHD1 (Homo sapiens, UniProt Q9Y3Z3); assay: Kinetic study, enzyme-coupled MG assay with matrix of inhibitors and dGTP; format: biochemical; details: inhibitor 0.03-20 μM added before dGTP 6.25-200 μM
T4 construct: His-tag (N); made in house; host or cells: E. coli BL21 (DE3)
T4 sequence (Q9Y3Z3 whole entry): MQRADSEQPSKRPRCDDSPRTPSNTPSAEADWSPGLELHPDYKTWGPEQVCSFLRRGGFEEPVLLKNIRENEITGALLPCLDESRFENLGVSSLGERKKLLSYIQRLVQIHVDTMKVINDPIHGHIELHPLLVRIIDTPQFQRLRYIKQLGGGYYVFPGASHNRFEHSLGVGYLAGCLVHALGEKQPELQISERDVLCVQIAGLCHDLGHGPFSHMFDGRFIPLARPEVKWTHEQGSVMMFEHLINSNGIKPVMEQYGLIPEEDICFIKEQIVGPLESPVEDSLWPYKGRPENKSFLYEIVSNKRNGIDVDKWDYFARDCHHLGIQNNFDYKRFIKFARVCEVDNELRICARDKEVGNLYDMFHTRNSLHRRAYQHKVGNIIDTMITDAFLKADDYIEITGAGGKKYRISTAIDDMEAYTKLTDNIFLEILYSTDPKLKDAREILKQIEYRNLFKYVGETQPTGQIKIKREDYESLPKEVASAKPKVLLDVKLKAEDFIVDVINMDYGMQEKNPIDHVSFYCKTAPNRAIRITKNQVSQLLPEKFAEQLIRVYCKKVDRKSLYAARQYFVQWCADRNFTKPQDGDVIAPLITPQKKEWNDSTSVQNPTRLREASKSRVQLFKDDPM

[5] = target: T4, recombinant SAMHD1; assay: Differential scanning fluorometry (DSF); format: binding; details: for Effect on SAMHD1 thermal stability / Tm1: absence of nucleotides, up to 200 μM (0.2–[…]); for Effect on GTP-induced SAMHD1 dimerization (Tm1 transition): order-of-addition, 0.1 mM TH6342, 0.5 mM TH7127 pre-incubated before low GTP, TH7126 before or after GTP
[6] = target: T4, recombinant SAMHD1; assay: In vitro chemical crosslinking (glutaraldehyde), SAMHD1 multimers; details: 1.875 mM glutaraldehyde, GTP 0-5 mM
[7] = target: T4, recombinant SAMHD1; assay: B4NPP direct SAMHD1 enzymatic assay; format: biochemical; details: for Inhibition of SAMHD1 activity against B4NPP (in words): 2 mM B4NPP
[8] = target: T4, recombinant SAMHD1; assay: Enzyme-coupled malachite green assay, SAMHD1 in vitro activity (dGTP, ara-CTP, Cl-F-ara-ATP substrates); format: biochemical
[9] = test system: T5, SAMHD1^Y146S/Y154S; assay: CETSA using lysates of SAMHD1−/− THP-1 cells with rescue expression of dimerization-defective variant; format: binding, Human; details: versus DMSO, full melt curves, 100 μM
T5 construct: expressed in transfected cells; host or cells: SAMHD1-/- THP-1 cell clone

[10] = test system: recombinant MTH1, dCTPase, dUTPase, ITPase, NUDT5, NUDT12, NUDT15 and NUDT22; assay: Compound selectivity, enzyme-coupled MG assays against panel of nucleoside pyro-/tri-phosphatases; format: biochemical, human; details: assayed up to 100 μM
[11] = target: T4, recombinant SAMHD1; assay: Dynamic light scattering (DLS), SAMHD1 particle size; details: 1 mM compound, 1 mM GTP
[12] = substrate Cl-F-ara-ATP 50 μM with GTP 12.5 μM as activator, read-out: IC50 (μM) Cl-F-ara-ATP
[13] = substrate ara-CTP 200 μM with dGTPαS 3.125 μM as activator, read-out: IC50 (μM) araCTP
[14] = substrate dGTP 25 μM, read-out: IC50 (μM) dGTP

| Inhibition of SAMHD1 activity against B4NPP (in words) ([7]; Mn2+) | IC50 [8, 12] [µM] | IC50 [8, 13] [µM] | IC50 [8, 14] [µM] | Selectivity for SAMHD1 versus panel of nucleotide phosphatases [10] | Compound | SAMHD1 stability to pronase treatment [2] | Effect on reaction kinetics / Hill coefficient (Hn) [4] | Effect on SAMHD1 thermal stability / Tm1 [5] | Effect on GTP-induced SAMHD1 dimerization (Tm1 transition) [5] | also measured |
| --- | --- | --- | --- | --- | --- | --- | --- | --- | --- | --- |
| – | – | – | – | – | Cc1cn([C@H]2C[C@H](O)[C@@H](CO)O2)c(=O)[nH]c1=O [thymidine, Thymidine] | – | – | – | – | SAMHD1 stabilization against heat, intact cells [1]: substantially stabilized SAMHD1 |
| – | – | – | – | – | Nc1nc2c(ncn2[C@H]2C[C@H](O)[C@@H](COP(=O)(O)OP(=O)(O)OP(=O)(O)O)O2)c(=O)[nH]1 [dGTP, reference compound] | substantially stabilized SAMHD1 | – | – | – | SAMHD1 stabilization against heat, cell lysate ([3]; 100 μM inhibitors or 5 mM dGTP, isothermal at 45°C for inhibitors): substantially stabilized SAMHD1 |
| retained their inhibitory activities | 5.8 | 11 | 9.1 | selectively inhibited SAMHD1 | Clc1ccccc1-c1cn2ccnc2c(NCCc2ccccn2)n1 [TH6342, 6-(2-chlorophenyl)-N-(2-(pyridin-2-yl)ethyl)imidazo[1,2-a]pyrazin-8-amine] | Neither TH6342 nor TH7127 in cell lysates altered SAMHD1 stability to pronase treatment | significantly increased hill coefficients | small concentration-dependent reduction in Tm1 | the allosteric activator was not able to fully remove the Tm1 transition | Effect on thermal stability of nucleotide-bound SAMHD1 ([5]; 0.5 mM compound added after GTP at 5 mM or dGTPαS at 1 mM): mildly destabilized GTP-bound, but not dGTPαS-bound, SAMHD1 species; Effect on GTP-induced SAMHD1 multimerization (crosslinking) [6]: deterred GTP-induced SAMHD1 multimerization; Increase of aggregation temperature (Tagg) [9]: ~1 °C; Aggregation temperature (Tagg) ± SE (°C) ([3]; Figure 7F, SAMHD1 Tagg summary, wild-type SAMHD1 lysate, 100 μM compound, DMSO 44.8 ± 0.6): 46.1 ± 0.4 °C; Effect on GTP-induced SAMHD1 dimerization (DLS) [11]: deterred GTP (1 mM)-induced SAMHD1 dimerization |
| – | – | – | – | – | Nc1nc2c(ncn2[C@H]2C[C@H](O)[C@@H](COP(O)(=S)OP(=O)(O)OP(=O)(O)O)O2)c(=O)[nH]1 (stereo partly drawn) [dGTPαS, reference compound] | – | – | – | – | Tm3 ([5]; SAMHD1 melting temperature with dGTPαS up to 1 mM): ~70 °C |
| minimal inhibition | > 100 | > 100 | > 100 | – | Nc1ccccc1-c1cn2ccnc2c(NCCc2ccccn2)n1 [TH7126, 6-(2-aminophenyl)-N-(2-(pyridin-2-yl)ethyl)imidazo[1,2-a]pyrazin-8-amine] | – | did not alter the reaction kinetics | did not alter SAMHD1 thermal stability | did not disrupt SAMHD1 dimerization | Inhibition of SAMHD1 (in words) ([8]; dGTP, ara-CTP and Cl-F-ara-ATP substrates): Neg. control; also recorded: minimal inhibition |
| retained their inhibitory activities | 4 | 4.5 | 4.9 | selectively inhibited SAMHD1 | COc1ccccc1-c1cn2ccnc2c(NCCc2ccccn2)n1 [TH7127, 6-(2-methoxyphenyl)-N-(2-(pyridin-2-yl)ethyl)imidazo[1,2-a]pyrazin-8-amine] | Neither TH6342 nor TH7127 in cell lysates altered SAMHD1 stability to pronase treatment | significantly increased hill coefficients | small concentration-dependent reduction in Tm1 | the allosteric activator was not able to fully remove the Tm1 transition | Ki ([7]; B4NPP substrate, Mn2+, global fit, mixed inhibition model): 20.1 µM; Mode of inhibition ([7]; B4NPP substrate, global fitting): mixed mode of inhibition; alpha (α) ([7]; B4NPP substrate, global fit, mixed inhibition model): 0.36 |
| retained their inhibitory activities | 2.6 | 2.8 | 4.5 | selectively inhibited SAMHD1 | c1ccc(CCNc2nc(-c3cccs3)cn3ccnc23)nc1 [TH7528, N-(2-(pyridin-2-yl)ethyl)-6-(thiophen-2-yl)imidazo[1,2-a]pyrazin-8-amine] | – | significantly increased hill coefficients | small concentration-dependent reduction in Tm1 | – | – |

From paper PMC10839966, “Identification and evaluation of small-molecule inhibitors against the dNTPase SAMHD1 via a comprehensive screening funnel” (iScience, 2024)
